# Assay results from PMC12064818, “A general assay platform to study protein pharmacology using ligand-dependent structural dynamics” (Nature Communications, 2025).
# Several values for one entry are separate records, joined by “and”; a condition that tells them apart may be missing. Identical values can stand only once.
# Biological target: T1, T7 Lig-C-HiBiT (DNA ligase) (Escherichia phage T7, UniProt P00969)
# T1 sequence (P00969 2-359): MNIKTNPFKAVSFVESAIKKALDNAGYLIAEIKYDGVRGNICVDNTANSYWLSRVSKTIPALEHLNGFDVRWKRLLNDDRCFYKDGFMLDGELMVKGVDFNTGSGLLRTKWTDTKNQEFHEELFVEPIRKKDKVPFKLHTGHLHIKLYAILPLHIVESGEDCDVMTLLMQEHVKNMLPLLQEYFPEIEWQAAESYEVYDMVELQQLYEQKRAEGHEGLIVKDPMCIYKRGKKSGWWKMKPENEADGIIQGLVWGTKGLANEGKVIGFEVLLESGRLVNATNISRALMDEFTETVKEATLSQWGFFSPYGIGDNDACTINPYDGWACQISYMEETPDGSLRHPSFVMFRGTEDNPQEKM
# Test: SDR assay (aqueous ligand dispense), T7 Lig-C-HiBiT
# Conditions: for SDR assay data: 1 nM T7 Lig-C-HiBiT; for SDR assay data / SDR response: Log [ATP]; for SDR response: replicates
# [1] = T7 Lig-C-HiBiT (1 nM), ligand 100 µM
compound,measurement,setting,value
Nc1ncnc2c1ncn2[C@@H]1O[C@H](COP(=O)(O)OP(=O)(O)OP(=O)(O)O)[C@@H](O)[C@H]1O [ATP],EC50,,≥ 100 µM
same,SDR assay data,M -2.85,216.5 and 209.6 and 219.5
same,SDR assay data,M -3.15,141.4 and 163.1 and 159.6
same,SDR assay data,M -3.45,83.0 and 105.1 and 112.1
same,SDR assay data,M -3.75,54.1 and 71.7 and 73.7
same,SDR assay data,M -4.35,22.4 and 27.8 and 30.1
same,SDR assay data,M -4.65,18.5 and 22.1 and 22.3
same,SDR assay data,M -4.95,14.4 and 13.8
same,SDR assay data,M -5.25,9.3 and 8.9
same,SDR assay data,M -5.55,9.2 and 6.3
same,SDR assay data,M -6.16,7.3 and 4.5
same,SDR assay data,M -6.46,6.2 and 3.9 and 5.5
same,SDR response,M -2.85,216.5 and 209.6 and 219.5
same,SDR response,M -3.15,141.4 and 163.1 and 159.6
same,SDR response,M -3.45,83.0 and 105.1 and 112.1
same,SDR response,M -3.75,54.1 and 71.7 and 73.7
same,SDR response,M -4.05,18.5 and 46.9 and 44.7
same,SDR response,M -4.35,22.4 and 27.8 and 30.1
same,SDR response,M -4.65,18.5 and 22.1 and 22.3
same,SDR response,M -4.95,14.4 and 13.8
same,SDR response,M -5.25,9.3 and 8.9
same,SDR response,M -5.55,9.2 and 6.3
same,SDR response,M -5.86,6.9 and 3.3 and 6.8
same,SDR response,M -6.16,7.3 and 4.5
same,SDR response,M -6.46,6.2 and 3.9 and 5.5
same,SDR response,M -6.76,4.6 and 1.8 and 4.9
same,SDR assay response (in words),T7 Lig-C-HiBiT,strong SDR signal
same,SDR assay statistics Ave RLU,[1],70.8 RLU
same,SDR assay statistics S:B,[1],1.4
same,SDR assay statistics Z’,[1],-0.186
same,max resp,"T7 Lig-C-HiBiT, maximum response",215.2
